Tests used:
Assay in all cases: relative viability (nuclei count vs DMSO), 5 days (fraction); higher = more cells survive
[1] = compound: C1COCCN1C2=NC(=NC3=C2OC4=C3C=CC=N4)C5=CC(=CC=C5)NC(=O)C6=CN=C(C=C6)N + Cc1nc(Nc2ncc(C(=O)Nc3c(C)cccc3Cl)s2)cc(N2CCN(CCO)CC2)n1 [Dasatinib] (partner 0.075 µM)
Method in brief: (§1)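 Medians of duplicate plates are given as relative viability. That measure is the nuclei count in treated wells divided by the count in vehicle wells. Counts were taken on 4× images of lung cancer cell lines in 1536-well plates, 5 days after pin-tool dosing the day after seeding with one drug alone or a fixed anchor-drug dose plus five library-drug doses (not always all listed) in √10 steps.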

[2] = compound: C1COCCN1C2=NC(=NC3=C2OC4=C3C=CC=N4)C5=CC(=CC=C5)NC(=O)C6=CN=C(C=C6)N + NC(=O)Nc1cc(-c2cccc(F)c2)sc1C(=O)N[C@H]1CCCNC1 [AZD7762] (partner 0.2 µM)
Method in brief: as §1

SGI-1776 + AZD7762 = compound: CN1CCC(CNc2ccc3ncc(-c4cccc(OC(F)(F)F)c4)n3n2)CC1 [SGI-1776] + NC(=O)Nc1cc(-c2cccc(F)c2)sc1C(=O)N[C@H]1CCCNC1 [AZD7762] (partner 0.2 µM)
Method in brief: as §1

Entinostat + Olaparib = compound: Nc1ccccc1NC(=O)c1ccc(CNC(=O)OCc2cccnc2)cc1 [Entinostat] + O=C(c1cc(Cc2n[nH]c(=O)c3ccccc23)ccc1F)N1CCN(C(=O)C2CC2)CC1 [Olaparib] (partner 8 µM)
Method in brief: as §1

| Cell Line | relative viability ([1]; first compound 0.02 µM) | relative viability ([1]; first compound 0.06325 µM) | relative viability ([1]; first compound 0.2 µM) | relative viability ([1]; first compound 0.6325 µM) | relative viability ([1]; first compound 2 µM) | relative viability ([2]; first compound 0.02 µM) | relative viability ([2]; first compound 0.06325 µM) | relative viability ([2]; first compound 0.2 µM) | relative viability ([2]; first compound 0.6325 µM) | relative viability ([2]; first compound 2 µM) | relative viability (SGI-1776 + AZD7762; first compound 0.08 µM) | relative viability (SGI-1776 + AZD7762; first compound 0.8 µM) | relative viability (SGI-1776 + AZD7762; first compound 2.53 µM) | relative viability (SGI-1776 + AZD7762; first compound 8 µM) | relative viability (Entinostat + Olaparib; first compound 0.02 µM) | relative viability (Entinostat + Olaparib; first compound 0.06325 µM) | relative viability (Entinostat + Olaparib; first compound 0.2 µM) | relative viability (Entinostat + Olaparib; first compound 0.6325 µM) | relative viability (Entinostat + Olaparib; first compound 2 µM) |
| --- | --- | --- | --- | --- | --- | --- | --- | --- | --- | --- | --- | --- | --- | --- | --- | --- | --- | --- | --- |
| SW 900 | 0.54 | 0.538 | 0.613 | 0.518 | 0.448 | 0.63 | 0.606 | 0.505 | 0.522 | 0.429 | 0.852 | 0.745 | 0.676 | 0.568 | 0.857 | 0.815 | 0.902 | 0.616 | 0.355 |
| NCI-H1563 | 0.505 | 0.453 | 0.437 | 0.461 | 0.578 | – | – | – | – | – | – | – | – | – | – | – | – | – | – |
| SK-MES-1 | 0.342 | 0.406 | 0.259 | 0.239 | 0.244 | – | – | – | – | – | – | – | – | – | 0.576 | 0.646 | 0.801 | 0.596 | 0.467 |
| NCI-H1650 | 0.336 | 0.29 | 0.287 | 0.278 | 0.248 | – | – | – | – | – | – | – | – | – | 0.828 | 0.967 | 0.819 | 0.527 | 0.363 |
| Calu-6 | – | – | – | – | – | – | – | – | – | – | – | – | – | – | 0.603 | 0.539 | 0.637 | 0.381 | 0.323 |
| NCI-H661 | 0.88 | 0.853 | 0.688 | 0.736 | 0.64 | – | – | – | – | – | – | – | – | – | 0.696 | 0.721 | 0.641 | 0.567 | 0.339 |
| EBC-1 | – | – | – | – | – | – | – | – | – | – | – | – | – | – | 0.68 | 0.732 | 0.696 | 0.203 | 0.174 |
| NCI-H520 | 0.227 | 0.188 | 0.219 | 0.177 | 0.131 | – | – | – | – | – | – | – | – | – | 0.336 | 0.346 | 0.272 | 0.237 | 0.149 |
| COR-L23 | 0.505 | 0.604 | 0.451 | 0.472 | 0.327 | – | – | – | – | – | – | – | – | – | 0.323 | 0.311 | 0.347 | 0.184 | 0.127 |
| NCI-H1703 | – | – | – | – | – | 0.143 | 0.146 | 0.127 | 0.108 | 0.124 | 0.106 | 0.114 | 0.136 | 0.106 | 0.388 | 0.435 | 0.545 | 0.7 | 0.454 |
| IA-LM | – | – | – | – | – | – | – | – | – | – | – | – | – | – | 0.807 | 0.845 | 0.871 | 0.693 | 0.536 |
| HCC-44 | – | – | – | – | – | 0.907 | 1.05 | 1.04 | 0.991 | 1.14 | 1.07 | 0.969 | 1 | 0.95 | 0.957 | 0.906 | 0.93 | 0.875 | 0.7 |
| NCI-H1648 | – | – | – | – | – | 0.619 | 0.747 | 0.641 | 0.698 | 0.539 | 0.668 | 0.753 | 0.771 | 0.658 | 0.769 | 0.624 | 0.673 | 0.615 | 0.512 |
| SW 1573 | 0.401 | 0.565 | 0.458 | 0.378 | 0.247 | – | – | – | – | – | – | – | – | – | 0.415 | 0.563 | 0.582 | 0.468 | 0.261 |
| SK-LU-1 | 0.153 | 0.188 | 0.168 | 0.176 | 0.16 | – | – | – | – | – | – | – | – | – | 0.469 | 0.497 | 0.394 | 0.313 | 0.288 |
| A549 | – | – | – | – | – | – | – | – | – | – | – | – | – | – | 0.332 | 0.375 | 0.334 | 0.258 | 0.232 |

Reference: the supplement of paper PMC10307832
